Patent US20260007599A1, “TICAGRELOR IV FORMULATIONS FOR USE IN THE TREATMENT OF GRAM-POSITIVE BACTEREMIA” (Hyloris Developments SA, priority 2023, published 2026)
Marks after values point to notes of the source that are not given here.

Tests used:
[1] = pH, osmolality, assay and impurities of undiluted batches; impact of buffer strength; type: physicochemical
Experimental: From the results obtained in Example 4 it follows that the concentration of excipients may be such that the resulting ticagrelor solution is hypertonic. The osmolality and pH of several batches was checked. […] In addition, a screening was conducted on the impact of buffer strength on pH and osmolality.

[2] = Flocculation test (20 μl sample material in 1 ml diluent); type: physicochemical
[3] = tested on: glycopeptide intermediate Staphylococcus aureus (GISA); details: ex-vivo; cited from earlier work
Enterococcus faecalis = details: ex-vivo; cited from earlier work
[4] = Solubilization of ticagrelor in unbuffered cyclodextrin stock solutions in milli Q water, appearance on shaking platform; type: physicochemical;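 also: plus means clear and fully dissolved while plus-minus means clear solution with precipitation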
Experimental: In a first example two different types of cyclodextrin were used and compared for the solubilization of ticagrelor. An unbuffered stock solution of HPBCD or SBECD was made in water at the target concentrations of 20 w/w %, 25 w/w %, 30 w/w %, 35 w/w % and 40 w/w %. Ticagrelor was added slowly under vortex. Ticagrelor was used at concentrations of 5, 10 or 14 mg/ml in milli Q water. The ticagrelor-cyclodextrin solutions were left on a shaking platform. No sonification or heat was applied.

[5] = HPβCD 22.5% w/w, 19 mM phosphate buffer pH 7.5
[6] = HPβCD 25.0% w/w, 19 mM phosphate buffer pH 7.5
[7] = HPβCD 27.5% w/w, 19 mM phosphate buffer pH 7.5
[8] = HPβCD 30.0% w/w, 19 mM phosphate buffer pH 7.5
[9] = HPβCD 32.5% w/w, 19 mM phosphate buffer pH 7.5
[10] = phosphate buffer pH 7.5 strength 0.19 mM
[11] = phosphate buffer pH 7.5 strength 5 mM
[12] = phosphate buffer pH 7.5 strength 10 mM
[13] = phosphate buffer pH 7.5 strength 19 mM

CCCSc1nc(N[C@@H]2C[C@H]2c2ccc(F)c(F)c2)c2nnn([C@@H]3C[C@H](OCCO)[C@@H](O)[C@H]3O)c2n1 [ticagrelor, (1S,2S,3R,5S)-3-{7-[(1R,2S)-2-(3,4-difluorophenyl)cyclopropylamino]5-(propylthio)-3H-(1,2,3)triazolo (4,5-D)pyrimidin-3-yl}-5-(2 hydroxyethoxy) cyclopentane-1,2-diol]
Assay [1, 5]: 98.15% | Osmolality undiluted [1, 5]: 392 mOsm/kg | Total impurities [1, 5]: 0.39% | pH undiluted [1, 5]: 7.67 | Assay [1, 6]: 103.23% | Osmolality undiluted [1, 6]: 493 mOsm/kg | Total impurities [1, 6]: 0.41% | pH undiluted [1, 6]: 7.69 | Assay [1, 7]: 104.27% | Osmolality undiluted [1, 7]: 549 mOsm/kg | Total impurities [1, 7]: 0.42% | pH undiluted [1, 7]: 7.69 | Assay [1, 8]: 107.64% | Osmolality undiluted [1, 8]: 638 mOsm/kg | Total impurities [1, 8]: 0.44% | pH undiluted [1, 8]: 7.74 | Assay [1, 9]: 99.26% | Osmolality undiluted [1, 9]: 813 mOsm/kg | Total impurities [1, 9]: 0.41% | pH undiluted [1, 9]: 7.68 | Assay [1, 10]: 102.23% | Osmolality sample [1, 10]: 809 mOsm/kg | Total impurities [1, 10]: 0.42% | pH sample [1, 10]: 7.18 | Assay [1, 11]: 100.49% | Osmolality sample [1, 11]: 703 mOsm/kg | Total impurities [1, 11]: 0.40% | pH sample [1, 11]: 7.66 | Assay [1, 12]: 102.98% | Osmolality sample [1, 12]: 724 mOsm/kg | Total impurities [1, 12]: 0.42% | pH sample [1, 12]: 7.69 | Assay [1, 13]: 102.58% | Osmolality sample [1, 13]: 758 mOsm/kg | Total impurities [1, 13]: 0.42% | pH sample [1, 13]: 7.70 | Flocculation test ([2]; HPβCD 30% w/w, ticagrelor 5 mg/ml): passed | Flocculation test ([2]; HPβCD 35% w/w, ticagrelor 5 mg/ml): passed | Flocculation test ([2]; HPβCD 40% w/w, ticagrelor 5 mg/ml): passed | Flocculation test ([2]; HPβCD 40% w/w, ticagrelor 10 mg/ml): passed | Flocculation test ([2]; SBECD 40% w/w, ticagrelor 5 mg/ml): passed | minimal bactericidal concentration [3]: 20 microgram/ml | minimal bactericidal concentration (Enterococcus faecalis): 40 microgram/ml | Appearance in cyclodextrin ([4]; HPβCD 20% w/w, ticagrelor 5 mg/ml, after 5 min of shaking): − (translucent solution with precipitation) | Appearance in cyclodextrin ([4]; HPβCD 20% w/w, ticagrelor 5 mg/ml, after 30 min of shaking): +/− | Appearance in cyclodextrin ([4]; HPβCD 20% w/w, ticagrelor 5 mg/ml, after 60 min of shaking): +/− | Appearance in cyclodextrin ([4]; HPβCD 20% w/w, ticagrelor 5 mg/ml, after 3 h of shaking): +/− | Appearance in cyclodextrin ([4]; HPβCD 20% w/w, ticagrelor 5 mg/ml, after overnight shaking): − (translucent solution with precipitation) | Appearance in cyclodextrin ([4]; HPβCD 20% w/w, ticagrelor 10 mg/ml, after 5 min of shaking): − (translucent solution with precipitation) | Appearance in cyclodextrin ([4]; HPβCD 20% w/w, ticagrelor 10 mg/ml, after 30 min of shaking): − (translucent solution with precipitation) | Appearance in cyclodextrin ([4]; HPβCD 20% w/w, ticagrelor 10 mg/ml, after 60 min of shaking): − (translucent solution with precipitation) | Appearance in cyclodextrin ([4]; HPβCD 20% w/w, ticagrelor 10 mg/ml, after 3 h of shaking): − (translucent solution with precipitation) | Appearance in cyclodextrin ([4]; HPβCD 20% w/w, ticagrelor 10 mg/ml, after overnight shaking): − (translucent solution with precipitation) | Appearance in cyclodextrin ([4]; HPβCD 20% w/w, ticagrelor 14 mg/ml, after 5 min of shaking): − (translucent solution with precipitation) | Appearance in cyclodextrin ([4]; HPβCD 20% w/w, ticagrelor 14 mg/ml, after 30 min of shaking): − (translucent solution with precipitation) | Appearance in cyclodextrin ([4]; HPβCD 20% w/w, ticagrelor 14 mg/ml, after 60 min of shaking): − (translucent solution with precipitation) | Appearance in cyclodextrin ([4]; HPβCD 20% w/w, ticagrelor 14 mg/ml, after 3 h of shaking): − (translucent solution with precipitation) | Appearance in cyclodextrin ([4]; HPβCD 20% w/w, ticagrelor 14 mg/ml, after overnight shaking): − (translucent solution with precipitation) | Appearance in cyclodextrin ([4]; HPβCD 25% w/w, ticagrelor 5 mg/ml, after 5 min of shaking): − (translucent solution with precipitation) | Appearance in cyclodextrin ([4]; HPβCD 25% w/w, ticagrelor 5 mg/ml, after 30 min of shaking): +/− | Appearance in cyclodextrin ([4]; HPβCD 25% w/w, ticagrelor 5 mg/ml, after 60 min of shaking): +/− | Appearance in cyclodextrin ([4]; HPβCD 25% w/w, ticagrelor 5 mg/ml, after 3 h of shaking): +/− | Appearance in cyclodextrin ([4]; HPβCD 25% w/w, ticagrelor 5 mg/ml, after overnight shaking, after one hour of sonication): +* (clear, appeared completely dissolved) | Appearance in cyclodextrin ([4]; HPβCD 25% w/w, ticagrelor 10 mg/ml, after 5 min of shaking): − (translucent solution with precipitation) | Appearance in cyclodextrin ([4]; HPβCD 25% w/w, ticagrelor 10 mg/ml, after 30 min of shaking): − (translucent solution with precipitation) | Appearance in cyclodextrin ([4]; HPβCD 25% w/w, ticagrelor 10 mg/ml, after 60 min of shaking): − (translucent solution with precipitation) | Appearance in cyclodextrin ([4]; HPβCD 25% w/w, ticagrelor 10 mg/ml, after 3 h of shaking): − (translucent solution with precipitation) | Appearance in cyclodextrin ([4]; HPβCD 25% w/w, ticagrelor 10 mg/ml, after overnight shaking): − (translucent solution with precipitation) | Appearance in cyclodextrin ([4]; HPβCD 25% w/w, ticagrelor 14 mg/ml, after 5 min of shaking): − (translucent solution with precipitation) | Appearance in cyclodextrin ([4]; HPβCD 25% w/w, ticagrelor 14 mg/ml, after 30 min of shaking): − (translucent solution with precipitation) | Appearance in cyclodextrin ([4]; HPβCD 25% w/w, ticagrelor 14 mg/ml, after 60 min of shaking): − (translucent solution with precipitation) | Appearance in cyclodextrin ([4]; HPβCD 25% w/w, ticagrelor 14 mg/ml, after 3 h of shaking): − (translucent solution with precipitation)
